# Experimental data from patent publication US9481796B2, “Method for producing nanoparticles” (M. Technique Co., Ltd., priority 2010, dated 2016).
# Assay: Volume-average particle diameter of benzbromarone nanoparticles (Nanotrac particle size distribution), Example 2-2
# Assay type: physicochemical
# Settings: ethanol solution of 3% benzbromarone/0.1% Tween 80 into pure water
# Description: Particle size distribution was measured by using a Nanotrac particle size distribution measurement instrument (UPA-EX150, manufactured by Nikkiso Co., Ltd.), and the volume-average particle diameter was taken. An ethanol solution in which benzbromarone and Tween 80 (dispersant) were dissolved with the concentrations thereof being 3% for benzbromarone and 0.1% for Tween 80 was introduced as a second fluid into between the processing surfaces 1 and 2 at a rate of 10 mL/minute, together with pure water as a first fluid from the center at supply pressure of 0.25 MPa, a rotation speed of 700 rpm, and a rate of 200 g/minute, whereby the two fluids were mixed. The dispersion solution of benzbromarone was discharged. Temperature conditions of the first fluid and the second fluid, and results of particle size distribution of the obtained dispersion solution are shown in Table 3. The particle diameters of nanoparticles obtained in respective conditions were confirmed by a transmission electron microscope (TEM); it was confirmed that the particle diameter confirmed by the TEM picture was identical to the measurement result of the particle size distribution. The SEM picture of the nanoparticles obtained under the temperature conditions of 25° C. for the first fluid and 25° C. for the second fluid (ΔT=0° C.) is shown in FIG. 17; and the TEM picture of the nanoparticles obtained under the temperature conditions of 5° C. for the first fluid and 35° C. for the second fluid (ΔT=30° C.) is shown in FIG. 18, respectively.
compound,measurement,setting,value
CCc1oc2ccccc2c1C(=O)c1cc(Br)c(O)c(Br)c1 [benzbromarone],Volume-average particle diameter,"T1 5°C, T2 5°C, ΔT 0",229.3 nm
same,Volume-average particle diameter,"T1 5°C, T2 8°C, ΔT 3",204.6 nm
same,Volume-average particle diameter,"T1 5°C, T2 10°C, ΔT 5",51.3 nm
same,Volume-average particle diameter,"T1 5°C, T2 35°C, ΔT 30",58.6 nm
same,Volume-average particle diameter,"T1 25°C, T2 25°C, ΔT 0",208.4 nm
